Laboratory results as given in PMC4383003, “Transfer hydrogenation catalysis in cells as a new approach to anticancer drug design” (Nature Communications, 2015).

Columns and labels:
calf thymus DNA = test: Interaction with calf thymus DNA (ethanol precipitation, ICP-MS of Ru); type: binding
Description: Interaction with calf thymus DNA
Complex 2 was chosen as representative of the series. A stock solution of complex 2 (0.7 mM in 5 % acetonitrile/water) was prepared and aliquots of 66 μL were added to a solution of CT-DNA (final ratio 1:3 complex: base pairs-DNA) in water, 2 mM cacodylate buffer and 2 mM NaCl. The reaction mixture was incubated at 310 K, and aliquots of 300 μL were taken at different intervals during a period of 27 h. The DNA was then precipitated by addition of ethanol (700 μL, final concentration 70% v/v). Ru complexes which are strongly bound to CT-DNA will precipitate together with the DNA upon addition of ethanol, and, therefore the ruthenium concentration in the supernatant should decrease. However, no changes in the Ru concentration were detected by ICP-MS showing that the interaction between the complex 2 and DNA is weak (t = 0 h / 64.2 ± 0.7 µM, t = 24 h/ 65.1 ± 0 .3 µM free Ru). In contrast complex 8

A2780 cells = test: Cellular membrane integrity (CytoPainter flow cytometry); type: cell-based, human; settings: A2780, complex 2 alone or with 2 mM sodium formate, 24 h
Description: Flow cytometry analysis of cellular membrane integrity of A2780 cells caused by exposure to complex 2 and sodium formate were carried out using the CytoPainter assay (Abcam) according to the manufacturer’s instructions. […] Cells were harvested using trypsin and stained in the dark using CytoPainter Red (Ex/Em 583/603 nm), which reacts with cell surface amines in compromised membranes. After staining, cell pellets were analysed in a Becton Dickinson FACScan Flow Cytometer.

Cc1ccc(C(C)C)cc1.Cc1ccc(S(=O)(=O)[N-]CCN)cc1.[Cl-].[Ru+2] [Complex 2, [(p-cym)Ru(TsEn)Cl]]
free Ru in supernatant (calf thymus DNA; CT-DNA, 1:3 complex:base pairs, 310 K, t = 0 h): 64.2 ± 0.7 µM
binding to calf thymus DNA (calf thymus DNA; ICP-MS of Ru, up to 27 h at 310 K, 1:3 complex:DNA base pairs, 2 mM cacodylate pH 7.4, 2 mM NaCl): weak and no binding
cellular membrane integrity, FL2 fluorescence of CytoPainter red (A2780 cells): low fluorescence
